Results reported in patent EP3570868B1, “[…] ANTIMICROBIAL PEPTIDES AND THEIR APPLICATIONS FOR THE TREATMENT AND PREVENTION OF MUSCU[…]” (Ustav Organicke Chemie a Biochemie AV CR, v.v.i., priority 2017, dated 2018).
Square brackets hold non-standard residues; d marks the D form. Peptide text beside a SMILES is read from it. Met(O) = CS(=O)CC[C@H](N)C(=O)O; βAla = NCCC(=O)O

Tests used:
human red blood cells = assay: Determination of haemolytic activity; type: cell-based; settings: human red blood cells (5% v/v), 1 h at 37 °C; concentration for lysis of 50% of erythrocytes
Description: The peptides in the concentrations 2-400 µmol.1^-1 were incubated with the suspension of human red blood cells (5% v/v) for 1 h at 37 °C in a physiological solution at a final volume of 0.2 ml. The samples were then centrifuged for 5 min at 250 g. The absorbance of the supernatant was determined at 540 nm. 0.2% (v/v) TRITON X100 was used as a control for 100% haemolysis. Haemolytic activity is expressed as the peptide concentration required for lysis of 50% of human erythrocytes in the assay (LC50). Table 2. Antimicrobial and haemolytic activity of I up to XIII peptides and tetracycline.

[1] = system: S. aureus (clin. isolate Liberec); assay: Induced osteomyelitis model in femur heads: effect of peptides released from carrier on infection in the bone graft; type: cell-based; settings: ChronOS (200 mg); 10 mg; two days; carrier without peptide 1,4x10^7
Description: (§1) 3-4 holes of a diameter of 5 mm and a depth of 10 mm are drilled with a surgical spoon into a femur head under sterile conditions (spongy part of the bone in the resection site). Thereafter, this bone graft is put into a beaker of appropriate size and lined with sterile gauze squares. The gauze is moistened with sterile physiological saline to prevent drying of the bone. Then, suspension of multiplied microbes in an appropriate medium (50-100 µl) at a concentration of 10^7 to 10^9 CFU is sequentially applied to the prepared holes in the bone graft and allowed to incubate for 1-2 days. […] Beaker with the infected bone graft is covered with a sterile Petri dish. During the experiment, induced osteomyelitis models are kept protected from light at room temperature.
(§2) After the incubation, the infected holes in the bone are filled with a mixture of the local carrier, and a peptide selected from the series of peptides of formulae I to XIII or their specific enantiomers (Figure 1). For comparison, one of the holes is filled with the local carrier without peptide, or the carrier filled with antibiotic (vancomycin or gentamicin). A commercially available two-component material supplied by Synthes (Synthes GmbH, Switzerland) under the name ChronOS Inject was used as the carrier. Its solid component comprises a mixture of calcium phosphates CaHPO4.2H2O and Ca3(PO4)2 and additives, the liquid component is 0.5% (vol./vol.) solution of hyaluronic acid.
(§3) After two days, the filling is thoroughly removed with a surgical spoon and empty holes are wiped with moistened sterile cotton swab, which is then extracted into 400 µl physiological saline. The extract is diluted in a tenfold serial dilution and each diluted suspension is cultured on agar in Petri dishes; the culture is evaluated on the following day. […] The result of the peptide effect is also compared with the result of the effect of antibiotics. In some cases, microbiological examination of the bone tissue taken with a surgical spoon from a deeper area of the drilled holes is performed. […] Table 3. Evaluation of the effect of antimicrobial peptides released from the carrier on an infection in the bone graft. Effect of antimicrobial activity is expressed in the number of CFU (colony-forming units) in the infected hole after swabbing.

Bacillus subtilis = type: cell-based; settings: B.s.; 37° C for 20 h
Description: (§4) Gram-positive bacteria (Bacillus subtilis, Staphylococcus aureus, Staphylococcus epidermidis and Enterococcus faecalis), Gram-negative bacteria (Escherichia coli and Pseudomonas aeruginosa) and the yeast (Candida albicans) were grown to exponential phase and then were diluted with fresh medium. BHI medium (Oxoid, Great Britain) was used for Enterococcus faecalis; YPD medium containing yeast extract, peptone and glucose was used for Candida albicans and LB medium (Sigma, Czech Republic) was used for the remaining microorganisms. Then the microorganisms were added to the solutions of the tested antimicrobial peptides in LB medium in multi-well plates, so that the final peptide concentration it the wells was in the range of 0.5 to 100 µmοl.1^-1. The plates were incubated at 37° C for 20 h while being continuously shaken in a Bioscreen C (Oy Growth Curves AB Ltd., Helsinki, Finland). Absorbance was measured at 540 nm every 15 min. Antimicrobial activity (Table 2) was determined as a quantitative minimum inhibitory concentration (MIC) by observing bacterial growth in the presence of different concentrations of tested peptides. In the experiments, ca 10^5 CFU of bacteria or candida per well were used. Tetracycline in a concentration range of 0.5 - 100 µmol.1^-1 was used as a standard.
(§5) Clinical isolates of bacteria were obtained from University Hospital in Motol, Prague, Czech Republic and from Liberec Regional Hospital, Czech Republic. Methicillin resistant Staphylococcus aureus (MRSA) 6271 and Pseudomonas aeruginosa 5482 were from the Czech National Collection of Type Cultures, the National Institute of Public Health, Prague, Czech Republic. Other bacteria were from the Czech Collection of Microorganisms, Brno, Czech Republic. Candida albicans came from the Faculty of Medicine, Palacky University, Olomouc, Czech Republic. Candida tropicalis ATCC 750 and Candida glabrata DSY 565 were obtained from the Institute of Physiology, Academy of Sciences of the Czech Republic.

Escherichia coli = type: cell-based; settings: E.c.; 37° C for 20 h
Description: as §4, §5

Candida albicans = type: cell-based; settings: C.a.; 37° C for 20 h
Description: as §4, §5

[2] = system: S.e. (clin. isolate Motol); type: cell-based, Staphylococcus epidermidis; settings: 37° C for 20 h
Description: as §4, §5

[3] = system: E.f. (clin. isolate Motol); type: cell-based, Enterococcus faecalis; settings: 37° C for 20 h
Description: as §4, §5

[4] = system: P.a. (clin. isolate Liberec); type: cell-based, Pseudomonas aeruginosa; settings: 37° C for 20 h
Description: as §4, §5

P.a. 5482 = type: cell-based, Pseudomonas aeruginosa; settings: 37° C for 20 h
Description: as §4, §5

[5] = system: MRSA (clin. isolate Liberec); type: cell-based, Staphylococcus aureus; settings: 37° C for 20 h
Description: as §4, §5

[6] = system: MRSA (clin. isolate Motol); type: cell-based, Staphylococcus aureus; settings: 37° C for 20 h
Description: as §4, §5

MRSA 6271 [7] = type: cell-based, Staphylococcus aureus; settings: 37° C for 20 h
Description: as §4, §5

[8] = system: S. epidermidis (clin. isolate Motol); assay: Induced osteomyelitis model in femur heads: effect of peptides released from carrier on infection in the bone graft; type: cell-based; settings: 10 mg, two days
Description: as §1, §2, §3

MRSA 6271 [9] = assay: Biofilm formation on the surface of a bone cement implant in femur heads; type: cell-based, Staphylococcus aureus; settings: two days, cement without peptide 6.0x10^4
Description: The resulting elastic paste is placed into a 2 ml plastic syringe (without needle) and pressed into the infected holes in the spongy part of the bone, where it polymerizes and hardens. For comparison, other similarly infected holes are filled with cement containing only an antibiotic or antimycotic agent. For comparison, a Vancogenx® cement (Tecresa S. p. A., Italy) is used, made from a mixture of a powdered polymer component containing vancomycin and gentamicin. The mixture in an amount of 125 mg is mixed with liquid monomer (50-60 µl) and then pressed into the openings as described above. In another embodiment, the cements are applied to uninfected holes, allowed to harden, and then microbes are pipetted into the hole excavated between implants. From there they penetrate through bone tissue and settle on the implants with consequent formation of biofilms.
After two days, implants are removed with metal spikes and tweezers, mechanically cleaned from debris of bone tissue, and washed four times with physiological saline (0.5 ml) in plastic tubes to remove any residual planktonic microbes or bone cells from their surface. The implants in closed tubes with 0.4 ml saline are then sonicated four times for 3 min with occasional shaking. The of microbial biofilm on the surface of the implant is thus disrupted and microbes are loosed into the physiological saline. The resulting suspension is subsequently diluted using the tenfold serial dilution for culturing on agar.
Evaluation of the effect of antimicrobial peptides on the formation of microbial biofilm on the surface of the implant made of the bone cement.

Row | SMILES | Hemolytic activity LC50 (human red blood cells) [µM] | CFU/hole [1] | Antimicrobial activity MIC (Bacillus subtilis) | Antimicrobial activity MIC (Escherichia coli) | Antimicrobial activity MIC (Candida albicans) | Antimicrobial activity MIC [2] | Antimicrobial activity MIC [3] | Antimicrobial activity MIC [4] | Antimicrobial activity MIC (P.a. 5482) | Antimicrobial activity MIC [5] | Antimicrobial activity MIC [6] | Antimicrobial activity MIC (MRSA 6271 [7]) | CFU/hole ([8]; ChronOS (300 mg), separate holes, carrier without peptide 1,2x10^5) [in all cases CFU/hole] | CFU/hole ([8]; ChronOS (200 mg), carrier without peptide 7,2x10^4) | CFU/implant (MRSA 6271 [9]) [CFU/implant]
1 | CC[C@@H](C)[C@@H](NC(=O)[C@@H](CCCCN)NC(=O)[C@@H](CCCCN)NC(=O)[C@@H](CC(C)C)NC(=O)[C@@H](CC(C)C)NC(=O)[C@@H](CCCCN)NC(=O)[C@@H](CCSC)NC(=O)[C@@H](Cc1c[nH]c2ccccc12)NC(=O)[C@H](N)CCCCN)C(=O)N[C@H](CC(C)C)C(=O)N[C@H](CCCCN)C(N)=O [II] (H-[dK][dW][dM][dK][dL][dL][dK][dK][dI][dL][dK]-NH2) | >400 | 1,8 x10^4 CFU/hole | – | – | – | – | – | – | – | – | – | – | – | – | –
2 | CC[C@@H](C)[C@@H](NC(=O)[C@@H](CCCCN)NC(=O)[C@@H](CCCCN)NC(=O)[C@@H](CC(C)C)NC(=O)[C@@H](CC(C)C)NC(=O)[C@@H](CCCCN)NC(=O)[C@@H](CCSC)NC(=O)[C@@H](Cc1c[nH]c2ccccc12)NC(=O)[C@@H](CCCCN)NC(=O)CN)C(=O)N[C@H](CC(C)C)C(=O)N[C@H](CCCCN)C(N)=O [IV] | >400 | – | 1,4 µmol.l^-1 | 3,0 µmol.l^-1 | 5,7 µmol.l^-1 | 2,0 µmol.l^-1 | 12,7 µmol.l^-1 | 12,5 µmol.l^-1 | 4,5 µmol.l^-1 | 5,3 µmol.l^-1 | 9,7 µmol.l^-1 | 11,3 µmol.l^-1 | – | – | –
3 | CC[C@@H](C)[C@@H](NC(=O)[C@@H](CCCCN)NC(=O)[C@@H](CCCCN)NC(=O)[C@@H](CC(C)C)NC(=O)[C@@H](CC(C)C)NC(=O)[C@@H](CCCCN)NC(=O)[C@H](NC(=O)[C@@H](Cc1c[nH]c2ccccc12)NC(=O)[C@@H](CCCCN)NC(=O)CN)C(C)C)C(=O)N[C@H](CC(C)C)C(=O)N[C@H](CCCCN)C(N)=O [IX] (H-G[dK][dW][dV][dK][dL][dL][dK][dK][dI][dL][dK]-NH2) | >400 | – | – | – | – | – | – | – | – | – | – | – | 0 | – | –
4 | CC[C@H](C)[C@H](NC(=O)[C@H](CCCCN)NC(=O)[C@H](CCCCN)NC(=O)[C@H](CC(C)C)NC(=O)[C@H](CC(C)C)NC(=O)[C@H](CCCCN)NC(=O)[C@H](CC(C)C)NC(=O)[C@H](Cc1c[nH]c2ccccc12)NC(=O)[C@H](CCCCN)NC(=O)CN)C(=O)N[C@@H](CC(C)C)C(=O)N[C@@H](CCCCN)C(N)=O [Peptide VII] (H-GKWLKLLKKILK-NH2) | 196 | – | 2,0 µmol.l^-1 | 5,0 µmol.l^-1 | 16,0 µmol.l^-1 | 2,2 µmol.l^-1 | 50,7 µmol.l^-1 | 10,7 µmol.l^-1 | 4,0 µmol.l^-1 | 8,0 µmol.l^-1 | 10,0 µmol.l^-1 | 10,0 µmol.l^-1 | – | 1,2 x10^2 CFU/hole | –
5 | CC[C@@H](C)[C@@H](NC(=O)[C@@H](CCCCN)NC(=O)[C@@H](CCCCN)NC(=O)[C@@H](CC(C)C)NC(=O)[C@@H](CC(C)C)NC(=O)[C@@H](CCCCN)NC(=O)[C@@H](CCSC)NC(=O)[C@@H](Cc1c[nH]c2ccccc12)NC(=O)[C@@H](CCCCN)NC(=O)CCN)C(=O)N[C@H](CC(C)C)C(=O)N[C@H](CCCCN)C(N)=O [Peptide VI] (H-[βAla][dK][dW][dM][dK][dL][dL][dK][dK][dI][dL][dK]-NH2) | >400 | – | – | – | – | – | – | – | – | – | – | – | – | – | –
6 | CC[C@H](C)[C@H](NC(=O)[C@H](CCCCN)NC(=O)[C@H](CCCCN)NC(=O)[C@H](CC(C)C)NC(=O)[C@H](CC(C)C)NC(=O)[C@H](CCCCN)NC(=O)[C@H](CC[S+](C)[O-])NC(=O)[C@H](Cc1c[nH]c2ccccc12)NC(=O)[C@H](CCCCN)NC(=O)CN)C(=O)N[C@@H](CC(C)C)C(=O)N[C@@H](CCCCN)C(N)=O (stereo partly drawn) [XII] (H-GKW[Met(O)]KLLKKILK-NH2) | >400 | – | 2,5 µmol.l^-1 | 26,7 µmol.l^-1 | 21,3 µmol.l^-1 | 5,0 µmol.l^-1 | >100 µmol/L | 22,1 µmol.l^-1 | 5,0 µmol.l^-1 | 11,5 µmol.l^-1 | 25,3 µmol.l^-1 | 64,0 µmol.l^-1 | – | – | 0
7 | CC[C@H](C)[C@H](NC(=O)[C@H](CCCCN)NC(=O)[C@H](CCCCN)NC(=O)[C@H](CC(C)C)NC(=O)[C@H](CC(C)C)NC(=O)[C@H](CCCCN)NC(=O)[C@H](CCCCN)NC(=O)[C@H](Cc1c[nH]c2ccccc12)NC(=O)[C@H](CCCCN)NC(=O)CN)C(=O)N[C@@H](CC(C)C)C(=O)N[C@@H](CCCCN)C(N)=O [X] (H-GKWKKLLKKILK-NH2) | >400 | – | 2,4 µmol.l^-1 | 11,5 µmol.l^-1 | 9,5 µmol.l^-1 | 4,7 µmol.l^-1 | >100 µmol/L | 9,5 µmol.l^-1 | 2,9 µmol.l^-1 | 11,5 µmol.l^-1 | 25,3 µmol.l^-1 | 29,7 µmol.l^-1 | – | – | –
